In patent US20080171706A1, “Anti-Adhesive Compounds to Prevent and Treat Bacterial Infections” (priority 2004, published 2008):
Where two headings read alike, the source gives them in different places.

Columns and labels:
FimHtrJ96 = target: T1, FimHtrJ96 (Escherichia coli, UniProt P08191); assay: biochemical; assay type: binding, uropathogenic E. coli strain J96
T1 construct: coding for the lectin domain of FimH (residues 1-158) with a C-terminal 6-histidine tag; made in house; host or cells: E. coli HB101 (lacking the fim operon), periplasmic extract, plasmid pPKL241
T1 sequence (P08191 22-179): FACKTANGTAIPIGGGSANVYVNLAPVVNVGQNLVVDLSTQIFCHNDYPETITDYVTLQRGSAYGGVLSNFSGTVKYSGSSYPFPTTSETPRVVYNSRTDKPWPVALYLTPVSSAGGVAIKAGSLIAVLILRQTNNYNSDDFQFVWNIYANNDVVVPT
Method: To measure the dissociation constant for FimH:alkyl or aryl-mannoside binding, two different binding assays were developed. The first binding assay uses [^3H]-mannose. The amount of radioactively labeled mannose bound to FimHtrJ96 was measured at six different concentrations of [^3H]-mannose, and a hyperbolic curve fitted to the resulting data (FIG. 1A). FimHtrJ96 corresponds to the carbohydrate (mannose) binding domain of FimH from the uropathogenic E. coli strain J96. The dissociation equilibrium constant was determined from this graph at the concentration of mannose […], which corresponds to occupation of half of the binding sites.
Surface Plasmon Resonance measurements were performed on a Biacore3000™. In a first experiment, the kinetic constants and maximal binding were determined for the FimH-antibody interaction. Next, a fixed concentration of FimH (close to the KD of the FimH-antibody interaction) in combination with varying concentrations of carbohydrate, were used to determine the dissociation equilibrium constant of the FimH-saccharide interaction in a competition experiment. Every measurement was repeated at least twice, including testing the variation between different protein and saccharide batches.
(§1) To eliminate the possibility of different binding strength for full length FimH and FimHtrJ96, the binding of alpha-D-mannose to FimC:FimH complex was also measured. […] The inhibition of [^3H]-mannose binding was used in a displacement assay to determine the dissociation constant for a synthetic butyl mannoside by measuring the amount of [^3H]-mannose bound to the protein in the presence of increasing amounts of the inhibitor (FIG. 1B). […] To investigate the effect of sequential addition of methyl groups to the O1 oxygen of D-mannose, a series of alkyl mannosides were synthesized and the dissociation constants determined using the [^3H]-mannose displacement assay and by surface plasmon resonance (Table 1).
Surface Plasmon Resonance measurements were performed on a Biacore3000™. The Fab fragments of a monoclonal antibody against FimH were covalently immobilised via lysines at 1000 Resonance Units (1000 pg ligand/mm^2) in flowcell Fc2 on a CM5 biasensor chip (BIAapplications Handbook, Biacore AB, Uppsala, Sweden). Immobilisation buffer was 100 mM NaAc pH 5.0 with 100 mM NaCl. The reference flowcell Fc1 was left blank.
Binding of FimH to the immobilized antibody was measured with a Biacore 3000 instrument in running buffer (phosphate buffered saline with 0.005% surfactant P20 and 3 mM EDTA), on both flowcells Fc1 and Fc2 simultaneously, at a flow rate of 30 μl/min and at 25° C. Complete dissociation of FimH was done with running buffer before starting a new binding cycle. For all measurements, the association time was 3 minutes, the dissociation time was 30 min. All binding cycles were performed in duplicate, including a zero concentration cycle of FimH (injection of running buffer).
In a first experiment, the kinetic constants, ka and kd, and the maximal binding Rmax, were determined for the FimH-antibody interaction (FimH concentrations (nM): 2000, 1000, 500, 250, 125, 62.5, 31.25, 15.625, 7.818, 3.911, 1.957, 0). All analyses were performed with the BIAeval software. A Langmuir binding isotherm with a 1:1 stoichiometry was fitted to the data, from which the kinetic constants and maximal binding were obtained.
In the next experiment, samples containing a fixed concentration of FimH (close to the KD of the FimH-antibody interaction) in combination with varying concentrations of saccharide, were used to determine the dissociation constant of the FimH-saccharide interaction in a competition experiment. First, ten-fold dilutions of the saccharide solution were used to determine the concentration range for binding of the saccharide to FimH.

FimC:FimH complex = target: T2, FimC:FimH complex (Escherichia coli, UniProt P08191); assay: Binding of alpha-D-mannose to full length FimH in FimC:FimH complex; design: species or system E. coli
T2 construct: lectin domain (residues 1-158) is joined to a carboxy-terminal pilin domain (residues 159-279)
T2 sequence (P08191 22-300): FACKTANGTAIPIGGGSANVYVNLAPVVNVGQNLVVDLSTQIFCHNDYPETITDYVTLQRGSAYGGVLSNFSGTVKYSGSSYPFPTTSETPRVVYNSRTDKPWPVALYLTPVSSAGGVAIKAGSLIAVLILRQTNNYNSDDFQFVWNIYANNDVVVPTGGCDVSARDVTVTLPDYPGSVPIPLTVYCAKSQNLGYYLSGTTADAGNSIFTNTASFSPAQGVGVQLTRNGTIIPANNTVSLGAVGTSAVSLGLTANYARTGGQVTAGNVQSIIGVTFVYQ
T2 sequence (P31697 37-241, further chain): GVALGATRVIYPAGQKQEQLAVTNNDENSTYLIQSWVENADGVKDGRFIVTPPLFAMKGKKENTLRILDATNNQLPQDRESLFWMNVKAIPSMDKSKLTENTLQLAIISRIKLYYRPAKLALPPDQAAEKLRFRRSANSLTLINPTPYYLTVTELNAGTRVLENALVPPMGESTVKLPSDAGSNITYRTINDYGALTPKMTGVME
Method: as §1

## OC[C@H]1O[C@H](O)[C@@H](O)[C@@H](O)[C@@H]1O [Mannose, α-D-mannose]
FimHtrJ96
  Kd: 2.3 µM
FimHtrJ96; Table 1, O1 alkyl and aryl mannosides, SPR and displacement binding experiments
  Kd: 2.3 µM
FimHtrJ96; Table 1, calculated from KD
  ΔG°: -7.6 kcal/mol
FimHtrJ96; Table 3, calculated from KD
  ΔG° J96: -7.6 kcal/mol
FimHtrJ96; read-out: KD J96, Table 3, [3H]-mannose displacement assay (mannose measured directly)
  Kd: 2.3 µM
FimC:FimH complex
  Kd: 2.3 µM
